In patent US20150017665A1, “Peptides and Methods for Detecting MPO-ANCA” (The University of North Carolina at Chapel Hill, priority 2012, published 2015):

Experiments:
DR2 Tg mice = experiment: Actively induced anti-MPO associated glomerulonephritis (peptide immunization); format: in vivo, mouse
Procedure: DR2 Tg mice (Ooi et al., Proc. Natl. Acad. Sci. USA 109:E2615 (2012); Rich et al., Eur. J. Immunol. 34:1251 (2004)) were immunized s.c. with 3×100 μg of peptide antigen (OVA323-339, n=4 or MPO442-460, n=10) first in FCA then FIA on days 0, 7 and 14. Mice were culled on day 28.
For indirect immunofluorescence, ethanol fixed thioglycolate induced peritoneal neutrophils were cytospun onto slides, purified serum IgG (1 mg/ml) was applied for 20 minutes then anti-mouse IgG Ab was detected using FITC conjugated anti-mouse IgG Ab (Silenus) (Ooi et al., Proc. Natl. Acad. Sci. USA 109:E2615 (2012); Lock, J. Clin. Pathol. 47:4 (1994)). Albuminuria was assessed by ELISA (Bethyl Laboratories) and haematuria assessed by urine test strips (Combur) from a 24 hour urine sample. Blood urea nitrogen (BUN) was measured using standard laboratory methods on serum collected at the end of experiment. Glomerular abnormalities assessed, on […], PAS stained, formalin fixed, paraffin embedded sections (≧50 glomeruli/mouse), were thickening of the capillary walls and mesangial hypercellularity (Ooi et al., J. Am. Soc. Nephrol. 20:980 (2009)). Total glomerular cell nuclei were enumerated (≧20 glomeruli/mouse). Glomerular neutrophils were detected by immunoperoxidase staining of 6 μm thick, periodate lysine paraformaldehyde fixed, frozen kidney sections using anti-Gr-1 antibodies (RB6-8C5).

MPO-ANCA [1] = experiment: Epitope excision MALDI-TOF/TOF MS of patient and healthy Ig with native MPO; format: binding; set-up: key: HC: Healthy control; Active disease; Remission; conditions: human Ig
Source text: Total immunoglobulin (IgG) was purified from sera using protein A/G PLUS-Agarose Reagent according to commercial protocol (Santa Cruz Biotechnology). Purified IgG was immobilized on CNBr-activated Sepharose 4B (GE Healthcare) in compact reaction columns (CRC, USB Corporation) and exposed to native MPO protein (MPO, Elastin Products Co, Inc) followed by digestion with sequencing grade TPCK-treated trypsin (Worthington). MPO-peptides remaining bound to IgG after digestion were eluted with 0.1% trifluoro acetic acid and analyzed on a 4800 Plus Matrix-Assisted Laser Desorption Ionization Time of Flight Mass Spectrometry (MALDI TOF/TOF MS/MS) in conjunction with ProteinPilot software (AB SCIEX).
To identify epitopes of low titer autoantibodies, ^18O labeling (Mirza et al., J. Proteome Res. 7:3042 (2008)) was used to differentiate between the signal and the noise in the MS and MSMS spectra using the 4 Da shifts between the corresponding spectra of labeled and non-labeled peptides. Mass spectrometry analysis for epitopes recognized by MPO autoantibodies from healthy individuals, and for detection of low ANCA titers in remission samples required the use of isotope H2^18O to increase sensitivity (Cambridge Isotope Laboratories). Samples from healthy individuals (n=10) and MPO-ANCA patients in clinical remission (n=35) were processed in the presence of H2^18O. Incorporation of H2^18O on the carboxyl terminus of each proteolytic fragment of MPO during tryptic digestion, trypsin buffer was made with the isotope H2^18O as a diluent.
MPO-ANCA positive patients (n=45) from the University of North Carolina cohort (UNC) were analyzed in the initial studies. Demographics of the cohort (Table 2) indicate a predominantly Caucasian group. Approximately 40% are diagnosed with microscopic polyangiitis (MPA), 40% with renal-limited disease and 20% are diagnosed with granulomatosis with polyangiitis (GPA). To compare epitope specificities related to disease activity, longitudinal samples were analyzed to include active disease (n=52) and remission (n=35) from the UNC cohort (Tables 3 and 4). Ten healthy subjects were included in the analyses. Purified immunoglobulin (Ig) from sera samples was subjected to analysis by epitope excision MALDI-TOF/TOF mass spectrometry (depicted in FIG. 3A) to identify epitope profiles of autoantibodies reactive with MPO. In order to epitope map low titer anti-MPO antibodies from healthy subjects and from patients in disease remission, an approach was designed using the ^16O-to-^18O exchange technique, an adaptation of a proteomics-based quantification method (Mirza et al., J. Proteome Res. 7:3042 (2008)). Incorporation of H2^18O on the carboxyl termini of proteolytic fragments produces a 4 Da mass shift in the MS spectra, decipherable from background noise. MPO epitopes unique to Ig from patients with active disease were designated ‘exclusive to active disease’; epitopes identified in remission samples were designated ‘persistent during remission’; and those present in samples from healthy subjects were designated asymptomatic or ‘natural’.

[2] = system: anti-MPO antibodies of immunized DR2 Tg mice; experiment: Epitope excision MS of IgG from immunized DR2 Tg mice with recombinant mouse MPO; format: binding; conditions: DR2 Tg mice immunized with MPO aa442-460
Procedure: Mass spectrometry analysis of ANCA-negative IgG and mouse IgG samples were conducted as above. With the exception of protein substrate, immobilized ANCA-negative IgG were exposed to whole leukocyte lysate preparation from a healthy donor and mouse IgG to recombinant mouse MPO (R&D Systems).
As HLA-MHC II help shape the B and T cell repertoires, and consequently the response to foreign and self-antigens, we wanted to define the epitope specificity of the anti-MPO autoantibodies that could be induced experimentally using DR2 Tg mice. In this way, we could assess development of the anti-MPO antibody response after immunization of a single epitope in the context of a human MHC II. IgG from sera of immunized mice was profiled for anti-MPO epitope specificity using epitope excision MS. DR2 Tg mice developed antibodies targeting the human B cell epitope aa447-459 which is within a conserved region of both murine and human MPO. Unpredictably, immunized DR2 Tg mice initiated a polyclonal response producing autoantibodies against the entire MPO molecule. The epitope profile was astonishingly similar to that of the MPO-ANCA human profile (Table 6), indicative of the critical nature of this epitope.

MPO-ANCA [3] = experiment: Peptide ELISA with total IgG (Chapel Hill and Groningen); format: binding, human
Procedure: A total of 195 IgG samples were tested by native MPO or peptide ELISA. Samples included those from healthy controls (n=59), active disease (n=80) and remission patients (n=56). Total IgG was added to wells (2 μg/well) precoated with 1-2 μg peptide (UNC-CH peptide synthesis core). Goat anti-human with alkaline phosphatase conjugate secondary antibody specific to IgG (H+L) (Millipore, Billerica, Mass.) (1:10,000) was added and detected using 1-Step PNPP substrate (Thermo Scientific) and read at λ=405 nm after 30 min. Identical peptides were used in ELISAs at both locations; all other substrates used to test NL cohort samples by ELISAs were prepared in Groningen. Total IgG (1:500˜2 mg/well) was added to precoated wells blocked with 1% BSA. Secondary antibody, goat anti-human conjugated with alkaline phosphatase (A5403; Sigma-Aldrich) (1:5000), was added and detected using p-nitrophenyl-phosphate disodium substrate.

[4] = compared with OVA aa323-339 immunized mice

Substance	Found in samples: Healthy control, Active disease, or Remission, (HC, A, R) (MPO-ANCA [1]; Table 1)	Found in samples: Healthy control, Active disease, or Remission, (HC, A, R) (MPO-ANCA [1]; Table 6)	Epitopes found in immunized mice [2]	further results
LYQEARKIVGAMVQIITYR (LYQEARKIVGAMVQITTYR; listed as Homo sapiens) [aa442-460]	–	–	–	induction of MPO-reactive antibodies (DR2 Tg mice; after 28 days): MPO-reactive antibodies after 28 days; BUN (DR2 Tg mice; [4]): increased BUN values; albuminuria (DR2 Tg mice; [4]): developed albuminuria; hematuria (DR2 Tg mice; [4]): hematuria; glomerular disease (DR2 Tg mice; day 28): mild glomerular proliferation
IPCFLAGDTR (listed as Homo sapiens) [aa396-405]	R	R	IPCFLAGDMR	–
FWWENEGVFSMQQR (listed as Homo sapiens) [aa678-691]	A, R, HC	A, R, HC	–	–
YQPMEPNPR (listed as Homo sapiens) [aa516-524]	A, R, HC	A, R, HC	–	ELISA reactivity in clinical remission (MPO-ANCA [3]; UNC and NL cohorts, remission samples): reactivity was found in remission samples in both cohorts; ELISA reactivity with Ig from active disease samples (MPO-ANCA [3]; active disease samples): reactive with Ig from active disease samples
KYLPTYR (listed as Homo sapiens) [aa474-480]	A ,R	A, R	–	–
VGPLLACI (listed as Homo sapiens) [aa657-664]	A	A	–	–
IANVFTNAFR (listed as Homo sapiens) [aa490-499]	A	A	IANVFTNAFR	–
WDGER (listed as Homo sapiens) [aa437-441]	A, R	A, R	–	–
RSPTLGASNR (listed as Homo sapiens) [aa184-193]	A	A	RSPTLGASNR	–
RDYLPLVLGPTAMR (listed as Homo sapiens) [aa460-473]	A, R, HC	A, R, HC	–	–
DHGLPGYNAWR (listed as Homo sapiens) [aa593-603]	A, R, HC	A, R, HC	DHGLPGYNAWR	–
LYQEAR (listed as Homo sapiens) [aa442-447]	A	A	–	–
QALAQISLPR (listed as Homo sapiens) [aa692-701]	A ,R	A, R	–	–
NQINALTSFVDASMV (listed as Homo sapiens) [aa328-351]	A	A	–	–
NNIFMSNTYPR (listed as Homo sapiens) [aa715-725]	A	A	NNIFMSNTYPR	–
LFEQVMR (listed as Homo sapiens) [aa572-578]	A, R, HC	A, R, HC	LFEQVMR	–
FPTDQLTPDQER (listed as Homo sapiens) [aa237-248]	A, R, HC	A, R, HC	–	–
QNQIAVDEIR (listed as Homo sapiens) [aa560-571]	A, R	A, R	–	–
WLPAEYEDGFSLPYG (listed as Homo sapiens) [aa198-219]	A	A	–	–
NGFPVALAR (listed as Homo sapiens) [aa220-228]	A	A	–	–
FQDNGR (listed as Homo sapiens) [aa369-374]	A	A	–	–
FCGLPQPETVGQLGT (listed as Homo sapiens) [aa605-622]	A	A	–	–
VVLEGGIDPILR (listed as Homo sapiens) [aa537-548]	A	A	VVLEGGIDPILR	–
VFFASWR (listed as Homo sapiens) [aa530-536]	A, R, HC	A, R, HC	VFFASWR	–
IGLDLPALNMQR (listed as Homo sapiens) [aa579-590]	A, R, HC	A, R, HC	IGLDLPALNMQR	–
